Experimental data: PubChem BioAssay (NCI)
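All cell lines were grown in 96-well plates and treated with compound for 48 hours. GI50 = concentration required for 50% inhibition of growth. The concentration for full growth arrest is given as TGI.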

How the values were obtained:
Test in all cases: NCI-60 cell line screen, 48 h
NCI/ADR-RES ovarian = tested on: NCI/ADR-RES ovarian
RXF 393 renal = tested on: RXF 393 renal
KM12 colon = tested on: KM12 colon
UO-31 renal = tested on: UO-31 renal
SN12C renal = tested on: SN12C renal
SF-268 CNS = tested on: SF-268 CNS
PC-3 prostate = tested on: PC-3 prostate
K-562 leukemia = tested on: K-562 leukemia
NCI-H460 lung = tested on: NCI-H460 lung
HOP-92 NSCLC = tested on: HOP-92 NSCLC
DU-145 prostate = tested on: DU-145 prostate
MCF7 breast = tested on: MCF7 breast
RPMI-8226 leukemia = tested on: RPMI-8226 leukemia
OVCAR-3 ovarian = tested on: OVCAR-3 ovarian
HT29 colon = tested on: HT29 colon
SK-MEL-28 melanoma = tested on: SK-MEL-28 melanoma
HCT-15 colon = tested on: HCT-15 colon
MOLT-4 leukemia = tested on: MOLT-4 leukemia
786-0 renal = tested on: 786-0 renal
CCRF-CEM leukemia = tested on: CCRF-CEM leukemia
HOP-62 NSCLC = tested on: HOP-62 NSCLC
A549 NSCLC = tested on: A549 NSCLC
ACHN renal = tested on: ACHN renal
OVCAR-4 ovarian = tested on: OVCAR-4 ovarian
BT-549 breast = tested on: BT-549 breast
SR leukemia = tested on: SR leukemia
SF-539 CNS = tested on: SF-539 CNS
HCT-116 colon = tested on: HCT-116 colon
NCI-H23 lung = tested on: NCI-H23 lung
CAKI-1 renal = tested on: CAKI-1 renal
NCI-H522 lung = tested on: NCI-H522 lung
SNB-19 CNS = tested on: SNB-19 CNS
UACC-62 melanoma = tested on: UACC-62 melanoma
M14 melanoma = tested on: M14 melanoma
COLO 205 colon = tested on: COLO 205 colon
MALME-3M melanoma = tested on: MALME-3M melanoma
HCC-2998 colon = tested on: HCC-2998 colon
HL-60(TB) leukemia = tested on: HL-60(TB) leukemia
TK-10 renal = tested on: TK-10 renal
SK-OV-3 ovarian = tested on: SK-OV-3 ovarian
EKVX NSCLC = tested on: EKVX NSCLC
SF-295 CNS = tested on: SF-295 CNS
T-47D breast = tested on: T-47D breast
MDA-MB-435 = tested on: MDA-MB-435
OVCAR-5 ovarian = tested on: OVCAR-5 ovarian

Structure (SMILES): COc1ccc(-c2ccc(/C=N/n3c(COc4ccc(Cl)cc4Cl)nn(CN4CCOCC4)c3=S)o2)c([N+](=O)[O-])c1
- GI50 (NCI/ADR-RES ovarian): 21.1 µM
- TGI (NCI/ADR-RES ovarian): 58.7 µM
- GI50 (RXF 393 renal): 24.3 µM
- TGI (RXF 393 renal): 88.9 µM
- GI50 (KM12 colon): 16.7 µM
- TGI (KM12 colon): 32.6 µM
- GI50 (UO-31 renal): 42.7 µM
- TGI (UO-31 renal): > 100 µM
- GI50 (SN12C renal): 24.5 µM
- TGI (SN12C renal): 67.7 µM
- GI50 (SF-268 CNS): 28.6 µM
- TGI (SF-268 CNS): > 100 µM
- GI50 (PC-3 prostate): 18.6 µM
- TGI (PC-3 prostate): 50.6 µM
- GI50 (K-562 leukemia): 18.2 µM
- TGI (K-562 leukemia): 46.6 µM
- GI50 (NCI-H460 lung): 25.6 µM
- TGI (NCI-H460 lung): > 100 µM
- GI50 (HOP-92 NSCLC): 0.829 µM
- TGI (HOP-92 NSCLC): 27.6 µM
- GI50 (DU-145 prostate): > 100 µM
- TGI (DU-145 prostate): > 100 µM
- GI50 (MCF7 breast): 20.7 µM
- TGI (MCF7 breast): 77.3 µM
- GI50 (RPMI-8226 leukemia): 12.7 µM
- TGI (RPMI-8226 leukemia): 40.1 µM
- GI50 (OVCAR-3 ovarian): 14.6 µM
- TGI (OVCAR-3 ovarian): 37.9 µM
- GI50 (HT29 colon): 42 µM
- TGI (HT29 colon): > 100 µM
- GI50 (SK-MEL-28 melanoma): 27.7 µM
- TGI (SK-MEL-28 melanoma): 86.8 µM
- GI50 (HCT-15 colon): 26.9 µM
- TGI (HCT-15 colon): > 100 µM
- GI50 (MOLT-4 leukemia): 19.4 µM
- TGI (MOLT-4 leukemia): 63.3 µM
- GI50 (786-0 renal): 32.5 µM
- TGI (786-0 renal): > 100 µM
- GI50 (CCRF-CEM leukemia): 16.2 µM
- TGI (CCRF-CEM leukemia): 43.8 µM
- GI50 (HOP-62 NSCLC): 35.9 µM
- TGI (HOP-62 NSCLC): > 100 µM
- GI50 (A549 NSCLC): 24.1 µM
- TGI (A549 NSCLC): > 100 µM
- GI50 (ACHN renal): 36.1 µM
- TGI (ACHN renal): > 100 µM
- GI50 (OVCAR-4 ovarian): 21.7 µM
- TGI (OVCAR-4 ovarian): 78.8 µM
- GI50 (BT-549 breast): 13.2 µM
- TGI (BT-549 breast): 44.6 µM
- GI50 (SR leukemia): 27.7 µM
- TGI (SR leukemia): 68.4 µM
- GI50 (SF-539 CNS): 18.8 µM
- TGI (SF-539 CNS): 62.9 µM
- GI50 (HCT-116 colon): 16.5 µM
- TGI (HCT-116 colon): 30.1 µM
- GI50 (NCI-H23 lung): 22.5 µM
- TGI (NCI-H23 lung): 66.7 µM
- GI50 (CAKI-1 renal): 22.7 µM
- TGI (CAKI-1 renal): 67.4 µM
- GI50 (NCI-H522 lung): 45.1 µM
- TGI (NCI-H522 lung): > 100 µM
- GI50 (SNB-19 CNS): 28.7 µM
- TGI (SNB-19 CNS): > 100 µM
- GI50 (UACC-62 melanoma): 87.6 µM
- TGI (UACC-62 melanoma): > 100 µM
- GI50 (M14 melanoma): 26 µM
- TGI (M14 melanoma): 72.6 µM
- GI50 (COLO 205 colon): 30.8 µM
- TGI (COLO 205 colon): > 100 µM
- GI50 (MALME-3M melanoma): 24.6 µM
- TGI (MALME-3M melanoma): 52.7 µM
- GI50 (HCC-2998 colon): 22.7 µM
- TGI (HCC-2998 colon): 60.2 µM
- GI50 (HL-60(TB) leukemia): 19.1 µM
- TGI (HL-60(TB) leukemia): 41.1 µM
- GI50 (TK-10 renal): 14.1 µM
- TGI (TK-10 renal): 49.2 µM
- GI50 (SK-OV-3 ovarian): 10.8 µM
- TGI (SK-OV-3 ovarian): 52.1 µM
- GI50 (EKVX NSCLC): > 100 µM
- TGI (EKVX NSCLC): > 100 µM
- GI50 (SF-295 CNS): 17.4 µM
- TGI (SF-295 CNS): 46.9 µM
- GI50 (T-47D breast): 38.6 µM
- TGI (T-47D breast): > 100 µM
- GI50 (MDA-MB-435): 18.6 µM
- TGI (MDA-MB-435): 51.5 µM
- GI50 (OVCAR-5 ovarian): 38.8 µM
- TGI (OVCAR-5 ovarian): > 100 µM
